Measurements as given in patent publication US7282507B2, “Indole derivatives as selective androgen receptor modulators (SARMS)” (Janssen Pharmaceutica N.V., priority 2004, dated 2007).
Where two headings read alike, the source gives them in different places.

What was measured:
[1] = molecular target: T1, androgen receptor (AdEasy+rAR, COS-7 cells) (Rattus norvegicus, UniProt P15207); experiment: COS-7 Whole-Cell Androgen Receptor Binding Assay, Adenovirus Transduction
T1 construct: expressed in transfected cells; host or cells: COS-7 cells transduced with adenovirus AdEasy+rAR
T1 sequence (P15207 1-902): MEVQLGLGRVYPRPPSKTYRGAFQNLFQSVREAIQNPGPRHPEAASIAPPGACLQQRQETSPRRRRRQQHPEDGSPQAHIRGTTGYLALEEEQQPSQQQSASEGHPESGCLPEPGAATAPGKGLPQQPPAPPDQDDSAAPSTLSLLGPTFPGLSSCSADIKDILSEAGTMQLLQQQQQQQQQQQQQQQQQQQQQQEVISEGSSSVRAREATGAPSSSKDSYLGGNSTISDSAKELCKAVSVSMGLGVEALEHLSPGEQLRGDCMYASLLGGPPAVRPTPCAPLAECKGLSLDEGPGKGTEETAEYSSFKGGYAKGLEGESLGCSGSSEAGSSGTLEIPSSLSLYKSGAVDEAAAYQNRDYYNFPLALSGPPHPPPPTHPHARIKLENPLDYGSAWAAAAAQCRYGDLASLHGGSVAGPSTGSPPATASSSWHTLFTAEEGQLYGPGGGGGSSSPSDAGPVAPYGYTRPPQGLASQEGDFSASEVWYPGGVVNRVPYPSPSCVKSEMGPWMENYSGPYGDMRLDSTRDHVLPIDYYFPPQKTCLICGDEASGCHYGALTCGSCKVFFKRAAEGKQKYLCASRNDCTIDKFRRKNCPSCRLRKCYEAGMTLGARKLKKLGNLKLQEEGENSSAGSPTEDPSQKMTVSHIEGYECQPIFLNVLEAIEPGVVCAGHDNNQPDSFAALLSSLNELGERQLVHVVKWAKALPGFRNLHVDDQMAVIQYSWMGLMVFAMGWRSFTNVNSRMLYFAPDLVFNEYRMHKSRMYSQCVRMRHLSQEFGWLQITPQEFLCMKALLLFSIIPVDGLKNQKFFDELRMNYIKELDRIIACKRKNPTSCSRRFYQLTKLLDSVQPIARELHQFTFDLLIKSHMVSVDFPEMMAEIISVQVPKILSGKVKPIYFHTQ
Procedure: COS-7 cells were plated in 96-well plates at 20,000 cells per well, in a solution of DMEM/F12 (GIBCO) containing 10% (v/v) charcoal-treated fetal bovine serum (Hyclone) and lacking phenol red. The cells were then incubated overnight at 37° C. in 5% (v/v) humidified CO2.
Test compound solutions were prepared by diluting the test compound in 100% (v/v) DMSO, if necessary.
Next, 1 mL of DMEM/F12 lacking phenol red was pipetted into each of the wells of a 2-mL 96-well assay block. […] The wells were carefully mixed by pipette.
In a 15 mL or 50 mL sterile centrifuge tube, a dilution in DMEM/F12 of the adenovirus AdEasy+rAR at a moi of 1:50 per well was prepared.
The medium was removed from the 96-well plates by inversion and the plates dried very briefly, inverted, on a sterile towel. As soon as possible after medium removal, 40 μL of the diluted test compound was added to each well, in duplicate. […] The plates were then incubated for 48 hours at 37° C. in 5% (v/v) humidified CO2.
The medium was removed from the above incubated plates by inversion and dried. Each well was then washed with 0.35 mL of 1× PBS. The PBS was then removed from the plates by inversion and the plates dried.
To each well was then added 50 μL of 0.5% (v/v) Triton X-100 (Sigma) in 1× PBS and the plates placed on a rotary shaker for 5 min. The contents of each well were then transferred to an OptiPlate-96 (Packard) scintillation plate. To each well was then added 0.2 mL of Microscint-20 (Packard) and the wells counted on a TopCount (Packard).
Percent inhibition was determined by testing dilutions of the test compound (usually duplicates of 10 μM) in the binding assay. Counts per well were measured and percents of inhibition determined. […] Counts per well were measured and IC50s determined by linear regression.

[2] = molecular target: T2, androgen receptor (AdEasy+rAR, L929 cells) (Rattus norvegicus, UniProt P15207); experiment: L929 Androgen Receptor Functional Assay, Adenovirus Transduction; type: cell-based; details: for inhibition at 3 µM: L929, antagonist testing with R1881, 3000 nM; for % Activity, L929 androgen receptor functional assay: agonist testing, 3000 nM
T2 construct: expressed in transfected cells; host or cells: L929 cells transduced with adenovirus AdEasy+rAR
T2 sequence (P15207 1-902): T1 sequence (P15207 1-902)
Procedure: L929 cells were plated in 96-well plates at 20,000 cells per well, in DMEM/F12 (GIBCO) containing 10% (v/v) charcoal-treated fetal bovine serum (Hyclone) and lacking phenol red. The plates were then incubated overnight at 37° C. in 5% (v/v) humidified CO2.
Test compound dilutions were prepared in 100% (v/v) DMSO, if necessary. Each dilution was made to 1250× the final desired assay concentration.
First, 2 mL of DMEM/F12 lacking phenol red was pipetted into the wells of a 2-mL 96-well assay block. Next, 4 μL of the 1250× test compound dilutions were pipetted into each well of the assay block. The mixtures within the well were then carefully mixed by pipette.
In a 15 mL or 50 mL sterile centrifuge tube, a 2.5 nM (2.5×) dilution of R1881 (methyl-trienolone) in DMEM/F12 lacking phenol red was prepared.
In a second 15 mL or 50 mL centrifuge tube a solution containing an equal volume of DMEM to the first and an equal volume of 100% (v/v) DMSO to the volume of R1881 used in the first tube was prepared.
In a 15 mL or 50 mL sterile centrifuge tube, a dilution in DMEM/F12 of the adenovirus AdEasy+rAR at an moi of 1:500 per well was prepared.
The medium was removed from the 96-well plates by inversion and dried, inverted, very briefly. As soon as possible after medium removal, 40 μL of the diluted unlabeled test compound was added to each well, in duplicate. To each well designated for antagonist testing was added 40 μL of the 2.5 nM R1881 dilution to the wells for antagonist testing. To each well designated for agonist testing was added 40 μL of the DMSO dilution. Then 20 μL of the diluted adenovirus were added to all wells. The plates were incubated for 48 hours at 37° C. in 5% (v/v) humidified CO2.
To each well was added 100 μL of Steady-Glo luciferase assay substrate (Promega) and the plates were placed on a rotary shaker for 1 min. The plates were then incubated at room temperature in the dark for one hour. The contents of each well were then transferred to a white microtiter plate (Packard) and read on a Luminoskan Ascent (Thermo Lab Systems).
L929 AR percent activity was determined by testing dilutions of the test compound using a concentration of 3000 nM unless otherwise noted. L929 percent inhibition was determined by testing dilutions of the test compound using a concentration of 3000 nM. […] Luciferase activity per well were measured and EC50s and IC50s determined by linear regression.

[3] = test system: testosterone-enhanced ventral prostate and seminal vesicle weights; experiment: Ventral Prostate and Seminal Vesicle Weight in vivo Assay; design: species or system rat; details: immature castrated male Sprague Dawley rats, once daily for five days, usually orally 40 mg/kg, with testosterone propionate 2 mg/kg s.c. Further: key: 'active' if the non weight adjusted prostate weight was ≦40 mg or the % Inhibition prostate weight, body weight adjusted was ≧40% @ 2 mg/day dosage; ID50's, if determined, of ≦15 mg/day also indicated an 'active' compound; listed herein as 'inactive' as they did not meet the specified criteria defined above.
Procedure, shortened: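 Wet weights of ventral prostate and seminal vesicles were taken on day six. Castrated immature male Sprague Dawley rats had received five daily doses of testosterone propionate (2 mg/kg s.c.) together with test compound, typically 40 mg/kg orally. Activity was scored from absolute prostate weight or body-weight-adjusted % inhibition.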

[4] = molecular target: T3, androgen receptor (rat ventral prostate cytosol) (Rattus norvegicus, UniProt P15207); experiment: Androgen Receptor Binding Using Rat Ventral Prostate Cytosol; details: Concentration 3000 nM
T3 construct: from tissue; host or cells: ventral prostate cytosol of castrated male Sprague Dawley or Wistar rats
T3 sequence (P15207 1-902): T1 sequence (P15207 1-902)
Procedure: The assay was run on a 96 well plate with each well filled with a total reaction volume 150 μL, of a solution containing 5 pmol androgen receptor LBD (Panvera) or 30 μL of freshly prepared rat cytosol, 0.5 nM [^3H] […] (TED buffer contains 10 mM Tris.HCl pH 7.4, 1 mM sodium molybdate, 1.5 mM EDTA, 1 mM DTT and 10% (v/v) glycerol.)
On day one, the solution containing receptor, tracer and TED buffer was distributed into a 96 well plate. Diluted test compound or control vehicle was then added to individual wells and the plate incubated at 4° C. overnight.
On day two, to each well was then added 20 μL human γ-globulin (ICN 823102), prepared at 25 mg/ml in TE pH 8.0, and 55 μL 40% polyethylene glycol 8000 (J T Baker U222-08), prepared in TE pH 8.0. The plate was incubated at 4° C. for 60 minutes. During incubation, the harvester was rinsed with 10% PEG 8000, prepared in TE pH 8.0, and a GF/C Unifilter-96 was pre-wet with 10% PEG. The binding reaction was filtered, the retentate was washed three times with 10% PEG and dried under vacuum for a couple of minutes, then dried at 50° C. for 5 min and the plate was bottom sealed. Next, 25 μL of Microscint-20 (Packard) was added to the filter wells and the plate was top sealed. The plate wells were then counted on a TopCount (Packard).
Rat Prostate Cytosol Preparation:
Male Sprague Dawley or Wistar rats (Charles River, 200-300 g) were used for each preparation. The day before preparing the cytosol, the rats were castrated using standard surgical procedures.
The rats were euthanized by carbon dioxide asphyxiation. The rat prostates were quickly removed and placed on ice in pre-chilled, pre-weighed 50 mL plastic tubes. No more than five prostates were placed into one tube. The tubes were then weighed and the prostate tissue wet weights calculated.
To the chilled prostate tissue was then added […] of chilled homogenization buffer. The homogenization buffer was freshly prepared by mixing 10 mM Tris.HCl, pH 7.4, 1 mM sodium molybdate, 1.5 mM EDTA, 1 mM dithiothreitol, 10% (v/v) glycerol and 1% protease inhibitor cocktail (Sigma P 8340).
The prostate tissue was homogenized in a cold room using a pre-chilled Polytron PT3000 homogenizer (Brinkmann). Homogenization was performed at a speed setting of 20, three times for 10 sec bursts. The tubes containing the prostate tissue was kept on ice while homogenizing. The homogenate was allowed to rest on ice for 20 sec between bursts.
The homogenate was then placed into pre-chilled 3 mL polycarbonate ultracentrifuge tubes and centrifuged in the TLA-100 rotor of a TL-100 ultracentrifuge for 12 min at 100,000 rpm at 4° C. The resulting supernatant was stored in 1 mL aliquots at −80° C. until needed.
Binding to the androgen receptor was determined according to the protocol described in Example 86 using the above prepared rat cytosol.
% Inhibition was determined by testing dilutions of the test compound (usually duplicates of 10 μM) in the binding assay. Counts per well were measured and percents of inhibition determined. […] Counts per well were measured and IC50s determined by linear regression.

[5] = read-out: IC50 (nM), COS Binding

COc1ccc(S(=O)(=O)CC(C)(O)c2cc3cc(Cl)c(C(F)(F)F)cc3n2S(C)(=O)=O)cc1 (stereo not shown) [Compound 128]
IC50 ([1]; IC50 (nM), COS Binding): > 1500 nM
inhibition at 3 µM ([1]; concentration of 3000 nM): 21%
inhibition at 3 µM [2]: 44%
% Activity, L929 androgen receptor functional assay [2]: −4%

CC(O)(Sc1ccc(N)cc1)c1cc2cc([N+](=O)[O-])c(C(F)(F)F)cc2[nH]1 (racemic) [Compound 266]
active / inactive: inhibition of testosterone-enhanced prostate weight [3]: inactive
% Activity, L929 androgen receptor functional assay [2]: −4%
% Inhibition, Androgen Receptor Binding (Rat Cytosol) [4]: 12.4%

CN(C)c1ccc(S(=O)(=O)CC(C)(O)c2cc3cc(Cl)c(C(F)(F)F)cc3[nH]2)cc1 (racemic) [Compound 126]
active / inactive: inhibition of testosterone-enhanced prostate weight [3]: inactive
% Activity, L929 androgen receptor functional assay [2]: −5%
% Inhibition, Androgen Receptor Binding (Rat Cytosol) [4]: −30%

CSCC(C)(O)c1cc2cc(Cl)c(C(F)(F)F)cc2n1S(C)(=O)=O (stereo not shown) [Compound 134]
active / inactive: inhibition of testosterone-enhanced prostate weight [3]: inactive
IC50 [1, 5]: > 10000 nM

CCS(=O)(=O)CC(C)(O)c1cc2cc([N+](=O)[O-])c(C(F)(F)F)cc2[nH]1 (stereo not shown) [Compound 175]
active / inactive: inhibition of testosterone-enhanced prostate weight [3]: active
IC50 [1, 5]: > 3000 nM

CC(O)(CSc1ccc(C(=O)O)cc1)c1cc2cc(Cl)c(C(F)(F)F)cc2n1S(C)(=O)=O (stereo not shown) [Compound 132]
IC50 ([1]; IC50 (nM), COS Binding): > 3000 nM
inhibition at 3 µM ([1]; concentration of 3000 nM): 8.7%
inhibition at 3 µM [2]: 48%
% Activity, L929 androgen receptor functional assay [2]: −5%

CCSCC(C)(O)c1cc2cc(Cl)ccc2n1S(C)(=O)=O (racemic) [Compound 154]
% Inhibition, COS Binding ([1]; concentration of 3000 nM): 50%
% Activity, L929 androgen receptor functional assay [2]: 2%
% Inhibition, L929 androgen receptor functional assay ([2]; antagonist testing with R1881, 3000 nM): 7%

CC(O)(CS(=O)(=O)Cc1ccccc1)c1cc2cc([N+](=O)[O-])c(C(F)(F)F)cc2[nH]1 (racemic) [Compound 162]
active / inactive: inhibition of testosterone-enhanced prostate weight [3]: inactive
% Activity, L929 androgen receptor functional assay [2]: 2%
% Inhibition, Androgen Receptor Binding (Rat Cytosol) [4]: 0.69%

CCSCC(C)(O)c1cc2cc(C#N)c(Cl)cc2[nH]1 (stereo not shown) [Compound 225]
inhibition at 3 µM ([1]; concentration of 3000 nM): 82%
IC50 [1, 5]: 142 nM
inhibition at 3 µM [2]: 97%
% Activity, L929 androgen receptor functional assay [2]: 1%
IC50 ([2]; antagonist testing with R1881): 229 nM

CC(C)SC(C)(CO)c1cc2cc([N+](=O)[O-])c(C(F)(F)F)cc2[nH]1 (racemic) [Compound 268]
active / inactive: inhibition of testosterone-enhanced prostate weight [3]: inactive
% Activity, L929 androgen receptor functional assay [2]: 9%
% Inhibition, Androgen Receptor Binding (Rat Cytosol) [4]: −3.3%

CCS(=O)(=O)CC(C)(O)c1[nH]c2cc(C(F)(F)F)c(C#N)cc2c1C (racemic) [Compound 246]
inhibition at 3 µM ([1]; concentration of 3000 nM): 70%
IC50 [1, 5]: 616 nM

CCSCC(C)(O)c1cc2ccc(C(F)(F)F)cc2n1S(C)(=O)=O (stereo not shown) [Compound 214]
IC50 [1, 5]: > 3000 nM

CC(O)(Sc1ccc(N)cc1)c1cc2cc(Cl)c(C(F)(F)F)cc2[nH]1 (racemic) [Compound 265]
% Activity, L929 androgen receptor functional assay [2]: −1%
% Inhibition, Androgen Receptor Binding (Rat Cytosol) [4]: 93.5%
